From patent US8076488B2, “Bicyclic urea derivatives useful in the treatment of cancer and other disorders” (Bayer Healthcare LLC, priority 2003, dated 2011)
Structures can show the parent of a compound that is named as a salt.

Target: T1, c-Raf kinase (Lck-activated c-Raf, Raf-1) (Homo sapiens, UniProt P04049)
T1 construct: GST-c-Raf (from amino acid 302 to amino acid 648); made in house; host or cells: Sf9 insect cells (baculovirus; co-infection with full-length Lck)
Experiment: c-Raf (Raf-1) biochemical assay (radioactive filtermat assay, MEK-1 substrate)
Conditions: at 1 micromolar compound; 5 μM ATP, 32° C., 1 hour
Method: Biological Tests c-Raf (Raf-1) Biochemical Assay Purification of Proteins Used in the Assay
The c-Raf biochemical assay was performed with a c-Raf enzyme that was activated (phosphorylated) by Lck kinase. Lck-activated c-Raf (Lck/c-Raf) was produced in Sf9 insect cells by co-infecting cells with baculoviruses expressing, under the control of the polyhedrin promoter, GST-c-Raf (from amino acid 302 to amino acid 648) and Lck (full-length). Both baculoviruses were used at the multiplicity of infection of 2.5 and the cells were harvested 48 hours post infection.
MEK-1 protein was produced in Sf9 insect cells by infecting cells with the baculovirus expressing GST-MEK-1 (full-length) fusion protein at the multiplicity of infection of 5 and harvesting the cells 48 hours post infection. Similar purification procedure was used for GST-c-Raf 302-648 and GST-MEK-1.
Transfected cells were suspended at 100 mg of wet cell biomass per mL in a buffer containing 10 mM sodium phosphate, 140 mM sodium chloride pH 7.3, 0.5% Triton X-100 and the protease inhibitor cocktail. The cells were disrupted with Polytron homogenizer and centrifuged 30,000 g for 30 minutes. The 30,000 g supernatant was applied onto GSH-Sepharose. The resin was washed with a buffer containing 50 mM Tris, pH 8.0, 150 mM NaCl and 0.01% Triton X-100. The GST-tagged proteins were eluted with a solution containing 100 mM Glutathione, 50 mM Tris, pH 8.0, 150 mM NaCl and 0.01% Triton X-100. The purified proteins were dialyzed into a buffer containing 20 mM Tris, pH 7.5, 150 mM NaCl and 20% Glycerol.
Biochemical Assay Protocol and Results
The compounds were serially diluted in DMSO using three-fold dilutions to stock concentrations ranging typically from 50 μM to 20 nM (final concentrations in the assay range from 1 μM to 0.4 nM). The c-Raf biochemical assay was performed as a radioactive filtermat assay in 96-well Costar polypropylene plates (Costar 3365). The plates were loaded with 75 μL solution containing 50 mM HEPES pH 7.5, 70 mM NaCl, 80 ng of Lck/c-Raf and 1 μg MEK-1. Subsequently, 2 μL of the serially diluted individual compounds were added to the reaction, prior to the addition of ATP. The reaction was initiated with 25 μL ATP solution containing 5 μM ATP and 0.3 μCi [33P]-ATP. The plates were sealed and incubated at 32° C. for 1 hour. The reaction was quenched with the addition of 50 μl of 4% Phosphoric Acid and harvested onto P30 filtermats (PerkinElmer) using a Wallac Tomtec Harvester. Filtermats were washed with 1% Phosphoric Acid first and deinonized H2O second. The filters were dried in a microwave, soaked in scintillation fluid and read in a Wallac 1205 Betaplate Counter (Wallac Inc., Atlanta, Ga., U.S.A.). The results were expressed as percent inhibition. % Inhibition=[[…]]×100 where • Tib=(counts per minute with inhibitor)−(background) • Ti=(counts per minute without inhibitor)−(background)

T1 sequence (P04049 302-648): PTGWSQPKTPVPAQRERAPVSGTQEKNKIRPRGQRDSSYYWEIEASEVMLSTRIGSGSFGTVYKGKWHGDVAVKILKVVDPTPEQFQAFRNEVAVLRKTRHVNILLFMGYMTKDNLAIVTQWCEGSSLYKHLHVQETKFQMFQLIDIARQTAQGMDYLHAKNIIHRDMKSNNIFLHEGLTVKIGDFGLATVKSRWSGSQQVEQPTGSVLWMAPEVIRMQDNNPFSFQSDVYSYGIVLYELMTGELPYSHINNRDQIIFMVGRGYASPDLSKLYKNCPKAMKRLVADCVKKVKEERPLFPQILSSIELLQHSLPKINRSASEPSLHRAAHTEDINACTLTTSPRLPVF

Inhibition at 1 µM, > 40%:
CNC(=O)c1cc(Oc2ccc(NC(=O)Nc3ccc4c(c3)CCN4S(C)(=O)=O)cc2)ccn1 [Example 31]
CNC(=O)c1cc(Oc2cccc(NC(=O)Nc3ccc4[nH]ncc4c3)c2)ccn1 [Example 108, 4-(3-{[(1H-indazol-5-ylamino)carbonyl]amino}phenoxy)-N-methylpyridine-2-carboxamide dihydrochloride]
CNC(=O)c1cc(Oc2ccc(NC(=O)Nc3cccc4c3CCC4)cc2)ccn1 [Example 7]
CNC(=O)c1cc(Oc2ccc(NC(=O)Nc3ccc4c(c3)C(F)(F)OC(F)(F)O4)cc2Cl)ccn1 [Example 115]
Cn1ncc2cc(NC(=O)Nc3ccc(Oc4ccnc(C(=O)NCCN5CCNCC5)c4)cc3)ccc21 [Example 157]
Cn1ncc2cc(NC(=O)Nc3ccc(Oc4ccnc(C(=O)NCCN5CCCC5)c4)cc3)ccc21 [Example 156]
CNC(=O)c1cc(Oc2ccc(NC(=O)Nc3ccc4cnn(C)c4c3)cc2)ccn1 [Example 24]
NC(=O)c1cc(Oc2cc(F)c(NC(=O)Nc3ccc4c(c3)C(F)(F)OC(F)(F)O4)c(F)c2)ccn1 [Example 150, 4-[3,5-difluoro-4-({[(2,2,4,4-tetrafluoro-4H-1,3-benzodioxin-6-yl)amino]-carbonyl}amino)phenoxy]pyridine-2-carboxamide]
Cn1ncc2cc(NC(=O)Nc3cccc(Oc4ccnc(C(=O)NCCN5CCCCC5)c4)c3)ccc21 [Example 148, 4-[3-({[(1-methyl-1H-indazol-5-yl)amino]carbonyl}amino)phenoxy]-N-(2-piperidin-1-ylethyl)pyridine-2-carboxamide]
CCn1c(C)nc2cc(NC(=O)Nc3ccc(Oc4ccnc(C(=O)NC)c4)cc3)ccc21 [Example 29]
CNC(=O)c1cc(COc2ccc(NC(=O)Nc3ccc4c(cnn4C)c3)cc2)ccn1 [Example 88]
Cn1ncc2cc(NC(=O)Nc3cccc(Oc4ccnc(C(=O)NCCCn5ccnc5)c4)c3)ccc21 [Example 166]
O=C(Nc1cccc(Oc2ccnc(C(=O)Nc3cccnc3)c2)c1)Nc1ccc2c(c1)C(F)(F)OC(F)(F)O2 [Example 169]
COC(=O)c1cc(Oc2ccc(NC(=O)Nc3ccc4c(cnn4C)c3)cc2)ccn1 [Example 98]
CNC(=O)c1cc(Oc2ccc(NC(=O)Nc3nc4ccc(Cl)cc4s3)cc2)ccn1 [Example 11]
CNC(=O)c1cc(Oc2ccc(NC(=O)Nc3ccc4c(c3)OC(F)(F)O4)cc2)ccn1 [Example 20]
Cc1nc2cc(NC(=O)Nc3ccc(Oc4ccnc(C(N)=O)c4)cc3)ccc2s1 [Example 91]
